Data taken from patent US20150328109A1, “DERMAL COMPOSITIONS CONTAINING UNNATURAL HYGROSCOPIC AMINO ACIDS” (MEDPHARM LIMITED, priority 2012, published 2015).

Experiments:
Normal RHE tissue = experiment: Tissue viability (MTT) of normal RHE tissue during 6 day treatment; type: cell-based, human; settings: 10% w/v, n = 1
Description: In this investigation two types of RHE tissues were used, which were healthy and psoriatic tissue sourced from the MatTek Corporation (Ashland, Mass.). For simplicity the protocol below refers to both tissue types as RHE tissues and all media as assay medium as both tissues were treated in the same manner. The only exception was that two different types of media were required for the different types of tissue (healthy and psoriatic tissues).
• (i) At the end of the equilibration period, the media for each well was removed then the tissues were lifted and placed on culture stands and fresh pre-warmed (37° C.) assay medium (5 mL) was added to the well. • (ii) Using a positive displacement pipette, the test solutions 10% w/v, N-H-S(N-hydroxyserine) in water, […], N-H-G (N-hydroxyglycine) in water, 10% w/v, L-h-S (L-homoserine) in water and 10% w/v, combination 1:1:1 (N-H-S:N-H-G: L-h-S) in water were dispensed (50±0.5 μL) onto the top of the RHE tissue. The solutions or controls were then distributed over the surface of the RHE tissues using a sterile glass rod. • (iii) The lid was placed on the well plate containing the RHE tissue and the tissues were returned to the incubator (37° C., 5% CO2) 48 h between applications.
• (i) Every 48 h culture media for the RHE tissues was removed from the 6 well plates and transferred into tubes stored (−20° C.) for cytokine analysis. • (ii) Fresh pre-warmed (37° C.) assay medium (5 mL) was added to each tissue using an automatic pipette. • (iii) From each treatment 1 tissue was removed for viability assessment. • (iv) The RHE tissues were subsequently rinsed with 100 μL of PBS to remove the residual solution from the epidermal surface. • (v) Using a positive displacement pipette, the solutions 10% w/v, N-H-S in water, 1% w/v, N-H-G in water, 10% w/v, L-h-S in water and 10% w/v, combination 1:1:1 (N-H-S:N-H-G:L-h-S) were dispensed (50±0.5 μL) onto the top of the RHE tissue. The solutions or controls were then distributed over the surface of the RHE tissues using a sterile glass rod. • (vi) The lid was placed on the well plate containing the RHE tissue and the tissues were returned to the incubator (37° C., 5% CO2) 48 h between applications at t=0, 48 and 96 h.
To determine the viability of the RHE tissue post application of the solutions and controls, the following procedure was used: • (i) The required wells in 24-well plates were filled with 300 μL MTT solution and protected from light. • (ii) The tissues were removed from the post treatment incubation plates and excess solutions and controls were removed with sterile cotton swabs. • (iii) The RHE tissue was subsequently rinsed with 1000 μL of PBS five times to remove the residual solution from the epidermal surface. • (iv) The tissue from Step (iii) was blotted dry with cotton swabs. • (v) The treated tissues from Step (iv) were transferred into wells in 24-well plates pre-filled with MTT solution (300 μL). The plates were incubated for 3 h (+/−5 min) at 37° C., 5% CO2 and 95% humidified atmosphere. • (vi) The treated tissues were subsequently transferred into a new plate filled with 1 mL of extractant solution. • (vii) The plates were sealed using Parafilm® to stop evaporation and protected from light using foil before extract at 2-8° C. to minimise evaporation. • (viii) Following extraction the RHE tissue were removed from the wells and an additional 1 mL of extractant solution was added. Using a pipette the extraction solution was mixed and made visually homogenous. • (ix) The solution from Step (viii) was transferred in to n=3 wells (200 μL per well) using an automatic pipette of a 96 well plate and the optical density was measured at a wavelength of 570 nm.

RHE tissues = experiment: RHE irritation assessment Method 2: Mattek's MTT effective time (ET-50) assay; type: cell-based, human; settings: for ET-50 (exposure time to reduce viability to 50% of the control): 1% w/v N-H-G in water, dosing periods 2, 6 and 24 h
Text: Method 1 was used to investigate the potential for alpha-hydroxylglycine (α-H-G) and L-homoserine (L-h-S) to cause skin irritation. The protocol is primarily designed and validated for single compounds rather than solutions. Therefore to provide further insight into the potential of N-hydroxyserine and N-hydroxylglycine to cause skin irritation a second protocol was investigated using Mattek's MTT effective time (ET-50) assay which is designed to test mixtures of compounds. In addition two commercially available amino acid related compound (L-serine and glycine) were selected and tested as comparators for N-hydroxyserine and N-hydroxylglycine. […] As a general guideline, the following groupings can be used in assigning expected in vivo irritancy responses based on the ET-50 results obtained: The irritation assessment of the solutions was performed using the protocol described below. Each of the test solutions; […] Damaged tissues were discarded. • (iii) The tissue were transferred into the assay medium and incubated at 37° C., 5% CO2 until the application of the test solutions; […] The working MTT solution was prepared using the following procedure: • (i) MTT concentrate was removed from the freezer and allowed to thaw. The concentrate was diluted with the MTT diluent solution (1 mL of concentrate to 4 mL of MTT diluent solution). • (ii) MTT solution from Step (i) was centrifuged at a g-force of 300 for 5 min to remove any particulates. • (iii) The supernatant of the MTT solution from Step (ii) was stored in the dark at 4° C. for a maximum period of 24 h and used as required. […] The plates were incubated for 3 h (+/−5 min) at 37° C., 5% CO2 and 95% humidified atmosphere. • (vi) The treated tissues were subsequently transferred into a new plate filled with 1 mL of extractant solution. • (vii) The plates were sealed using Parafilm® to stop evaporation and protected from light using foil before extract at 2-8° C. to minimise evaporation. • (viii) Following extraction the RHE tissue were removed from the wells and an additional 1 mL of extractant solution was added. Using a pipette the extraction solution was mixed and made visually homogenous. • (ix) The solution from Step (viii) was transferred in to n=3 wells (200 μL per well) using an automatic pipette of a 96 well plate and the optical density was measured at a wavelength of 570 nm.

O=C(O)[C@H](CO)NO [N-hydroxyserine]
Normal RHE tissue viability as a percentage of untreated control (%) (Normal RHE tissue; 2 days in treatments): 83.4%
Normal RHE tissue viability as a percentage of untreated control (%) (Normal RHE tissue; 4 days in treatments): 91.5%
Normal RHE tissue viability as a percentage of untreated control (%) (Normal RHE tissue; 6 days in treatments): 86.9%
ET-50 (exposure time to reduce viability to 50% of the control) (RHE tissues; 10% w/v N-H-S): 12 to 24 h
ET-50 (exposure time to reduce viability to 50% of the control) (RHE tissues; 10% w/v N-H-S, listed as N-H-S): 22.8 h
expected in vivo irritancy from ET-50 (RHE tissues; 10% w/v N-H-S, 1% w/v N-H-G, 10% w/v L-Serine, 10% w/v Glycine in water): very mild (12-24 very mild)

O=C(O)CNO [N-hydroxyglycine, N-Hydroxyglycine]
Normal RHE tissue viability as a percentage of untreated control (%) (Normal RHE tissue; 2 days in treatments): 97.9%
Normal RHE tissue viability as a percentage of untreated control (%) (Normal RHE tissue; 4 days in treatments): 91.5%
Normal RHE tissue viability as a percentage of untreated control (%) (Normal RHE tissue; 6 days in treatments): 93.3%
impact on the viability of the RHE tissues (RHE tissues; dosing periods t=2, 6 and 24 h, 1% w/v N-H-G, 10% w/v L-Serine, 10% w/v Glycine): no significant impact
